In the supplement of paper PMC10307832:

How the values were obtained:
Experiment in all cases: relative viability (nuclei count vs DMSO), 5 days (fraction); higher = more cells survive
[1] = compound: C1=CC(=CC=C1C2=CC(=C(S2)NC(=O)N)C(=O)N)F [TPCA-1] + CS(=O)(=O)CCNCc1ccc(-c2ccc3ncnc(Nc4ccc(OCc5cccc(F)c5)c(Cl)c4)c3c2)o1 [Lapatinib] (partner 2 µM)
Procedure, shortened: (§1)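 Each reported value is a median over duplicate plates. It expresses relative viability: treated-well nuclei count divided by vehicle-well nuclei count. Lung cancer cell lines in 1536-well plates were dosed by pin tool a day after seeding, alone with one drug or with a fixed anchor-drug dose plus five library-drug doses (not always all listed) in √10 steps, and nuclei were counted after 5 days.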

[2] = compound: C1/C(=C\C2=CC=CS2)/C(=O)/C(=C/C3=CC=CS3)/C1 + Cc1nc(NC(=O)N2CCC[C@H]2C(N)=O)sc1-c1ccnc(C(C)(C)C(F)(F)F)c1 [Alpelisib] (partner 2 µM)
Procedure, shortened: as §1

[3] = compound: C1=CC(=CC=C1C2=CC(=C(S2)NC(=O)N)C(=O)N)F [TPCA-1] + CC(=O)Nc1cccc(-n2c(=O)n(C3CC3)c(=O)c3c(Nc4ccc(I)cc4F)n(C)c(=O)c(C)c32)c1 [Trametinib] (partner 0.02 µM)
Procedure, shortened: as §1

[4] = compound: C1/C(=C\C2=CC=CS2)/C(=O)/C(=C/C3=CC=CS3)/C1 + O=C(c1cc(Cc2n[nH]c(=O)c3ccccc23)ccc1F)N1CCN(C(=O)C2CC2)CC1 [Olaparib] (partner 8 µM)
Procedure, shortened: as §1

Row | Cell Line | relative viability ([1]; first compound 0.04 µM) | relative viability ([1]; first compound 0.1265 µM) | relative viability ([1]; first compound 0.4 µM) | relative viability ([1]; first compound 1.265 µM) | relative viability ([1]; first compound 4 µM) | relative viability ([2]; first compound 0.2 µM) | relative viability ([2]; first compound 0.6325 µM) | relative viability ([2]; first compound 2 µM) | relative viability ([2]; first compound 6.325 µM) | relative viability ([2]; first compound 20 µM) | relative viability ([3]; first compound 0.04 µM) | relative viability ([3]; first compound 0.1265 µM) | relative viability ([3]; first compound 0.4 µM) | relative viability ([3]; first compound 1.265 µM) | relative viability ([3]; first compound 4 µM) | relative viability ([4]; first compound 0.2 µM) | relative viability ([4]; first compound 0.6325 µM) | relative viability ([4]; first compound 2 µM) | relative viability ([4]; first compound 6.325 µM) | relative viability ([4]; first compound 20 µM)
1 | NCI-H1666 | 0.539 | 0.569 | 0.865 | 0.707 | 0.631 | 1.18 | 0.936 | 0.972 | 0.712 | 0.852 | 0.838 | 0.7 | 0.879 | 0.804 | 0.787 | 0.76 | 0.769 | 0.77 | 0.69 | 0.708
2 | NCI-H1734 | 1.21 | 0.946 | 1.13 | 1.02 | 0.623 | 0.725 | 0.666 | 0.713 | 0.588 | 0.682 | 0.754 | 0.598 | 0.7 | 0.644 | 0.628 | 0.621 | 0.597 | 0.596 | 0.528 | 0.629
3 | NCI-H1755 | 0.991 | 0.984 | 1.02 | 0.898 | 0.689 | 0.951 | 0.963 | 1 | 0.796 | 0.929 | 0.846 | 0.716 | 0.72 | 0.714 | 0.591 | 0.88 | 0.907 | 0.916 | 0.749 | 0.877
4 | NCI-H1792 | 0.964 | 0.893 | 0.843 | 0.9 | 0.455 | 0.803 | 0.763 | 0.711 | – | 0.697 | 0.489 | 0.333 | 0.394 | 0.374 | 0.243 | 0.499 | 0.492 | 0.627 | 0.279 | 0.474
5 | NCI-H1793 | 1.05 | 0.669 | 0.837 | 0.929 | 0.354 | 0.64 | 0.656 | 0.763 | 0.696 | 0.559 | 0.466 | 0.473 | 0.4 | 0.451 | 0.384 | 0.904 | 0.931 | 0.978 | 0.782 | 0.893
6 | NCI-H1915 | 1.06 | 0.984 | 1.03 | 0.875 | 0.813 | 1.05 | 1.06 | 1.09 | 0.976 | 1.03 | 0.343 | 0.272 | 0.286 | 0.279 | 0.263 | 0.264 | 0.247 | 0.307 | 0.241 | 0.26
7 | NCI-H1944 | 0.999 | 0.68 | 0.838 | 0.7 | 0.682 | 0.864 | 0.8 | 0.855 | 0.713 | 0.818 | 0.423 | 0.373 | 0.426 | 0.355 | 0.294 | 0.435 | 0.385 | 0.392 | – | 0.41
8 | NCI-H1975 | 0.941 | 0.75 | 0.906 | 0.714 | 0.494 | 0.736 | 0.627 | 0.617 | 0.592 | 0.62 | 0.358 | 0.365 | 0.392 | 0.43 | 0.147 | 0.757 | 0.795 | 0.855 | 0.538 | 0.782
9 | NCI-H1993 | 0.855 | – | 0.735 | 0.765 | 1.11 | 0.698 | 0.655 | 0.633 | 0.703 | 0.637 | 0.545 | 0.563 | 0.563 | 0.423 | 0.425 | 1.1 | 0.969 | 1.17 | 0.958 | 0.85
10 | NCI-H2009 | 1.12 | 0.886 | 0.926 | 0.444 | 0.294 | 0.991 | 1.2 | 1.16 | 1.14 | 1.13 | 0.309 | 0.249 | 0.303 | 0.321 | 0.211 | 0.71 | 0.683 | 0.701 | – | 0.707
11 | NCI-H2023 | 1.1 | 0.78 | 1.14 | 0.528 | 0.133 | 0.706 | 0.595 | 0.63 | 0.559 | 0.619 | 0.588 | 0.352 | 0.556 | 0.487 | 0.426 | 0.457 | 0.501 | 0.459 | 0.459 | 0.417
12 | NCI-H2085 | 0.825 | 0.732 | 0.889 | 0.7 | 0.646 | 1.22 | 1.02 | 1.04 | 0.785 | 0.97 | – | 0.613 | 0.655 | 0.532 | 0.514 | 0.764 | 0.774 | 0.808 | 0.709 | 0.765
13 | NCI-H2087 | 1.08 | 0.914 | 0.905 | 0.798 | 0.247 | 1.24 | 1.14 | 1.04 | 0.917 | 1.11 | 0.201 | 0.163 | 0.231 | 0.152 | 0.139 | 0.708 | 0.528 | 0.699 | 0.561 | 0.594
14 | NCI-H2126 | 0.827 | 0.736 | 0.808 | 0.749 | 0.669 | 0.785 | 0.833 | 0.805 | 0.69 | 0.786 | 0.534 | 0.528 | 0.58 | 0.538 | 0.555 | 0.951 | 0.926 | 0.883 | 0.882 | 0.85
15 | NCI-H2170 | 0.263 | 0.272 | 0.261 | 0.284 | 0.248 | 0.888 | 0.775 | 0.758 | 0.638 | 0.749 | 0.903 | 0.907 | 0.937 | 0.866 | 0.455 | 0.619 | 0.645 | 0.595 | 0.422 | 0.536
16 | NCI-H2228 | 1.54 | 0.867 | 1.32 | 0.853 | 0.537 | 0.787 | 0.692 | 0.745 | 0.619 | 0.869 | 0.443 | 0.517 | 0.671 | 0.346 | 0.155 | 0.69 | 0.431 | 0.606 | 0.543 | 0.482
